Experiment: excess molar enthalpy (molar enthalpy of mixing); xn = mol fraction of the nth substance listed
Conditions: 308.15 K, 100 kPa

CS(C)=O + COC(=O)OC
Conditions | excess molar enthalpy [kJ/mol]
x1 = 0.0473 | 0.187
x1 = 0.0904 | 0.316
x1 = 0.1297 | 0.414
x1 = 0.1657 | 0.465
x1 = 0.2296 | 0.54
x1 = 0.3735 | 0.617
x1 = 0.5438 | 0.605
x1 = 0.6414 | 0.576
x1 = 0.7045 | 0.532
x1 = 0.7815 | 0.467
x1 = 0.8267 | 0.406
x1 = 0.8774 | 0.322
x1 = 0.9051 | 0.264
x1 = 0.9662 | 0.103

CC1COC(=O)O1 (stereo unspecified) + CS(C)=O
Conditions | excess molar enthalpy [kJ/mol]
x2 = 0.0571 | 0.078
x2 = 0.108 | 0.139
x2 = 0.1538 | 0.191
x2 = 0.195 | 0.228
x2 = 0.2666 | 0.294
x2 = 0.3264 | 0.336
x2 = 0.4209 | 0.383
x2 = 0.492 | 0.414
x2 = 0.6857 | 0.397
x2 = 0.7441 | 0.358
x2 = 0.8135 | 0.298
x2 = 0.9458 | 0.11
x2 = 0.9721 | 0.058

CCOC(=O)OCC + CS(C)=O
Conditions | excess molar enthalpy [kJ/mol]
x2 = 0.0666 | 0.377
x2 = 0.1249 | 0.612
x2 = 0.1764 | 0.767
x2 = 0.2221 | 0.871
x2 = 0.3635 | 1.03
x2 = 0.4614 | 1.06
x2 = 0.6315 | 0.969
x2 = 0.7199 | 0.86
x2 = 0.7741 | 0.748
x2 = 0.8371 | 0.622
x2 = 0.8727 | 0.523
x2 = 0.9115 | 0.393
x2 = 0.932 | 0.316
x2 = 0.9536 | 0.229

Source: a compilation of properties of binary mixtures (doi:10.1021/je050444g)
